ChEMBL document CHEMBL1139332, “Selective activity against Mycobacteriumtuberculosis of new quinoxaline 1,4-di-N-oxides” (Bioorg Med Chem, 2009)
Values after ≈ are worked out from the molar mass of the structure shown.

What was measured:
[1] = tested on: Mycobacterium tuberculosis; assay: Antimicrobial activity against Mycobacterium tuberculosis H37Rv by microplate alamar blue assay; format: functional
[2] = tested on: Mycobacterium tuberculosis; assay: Antimicrobial activity against Mycobacterium tuberculosis H37Rv at 6.25 ug/ml by microplate alamar blue assay; format: functional
Vero = assay: Cytotoxicity against african green monkey Vero cells after 72 hrs by MTT assay; format: cell-based, Chlorocebus sabaeus; details: Chlorocebus sabaeus, Vero, 72 h; read-out: IC50
[3] = Selectivity index, ratio of IC50 for african green monkey Vero cells to MIC for Mycobacterium tuberculosis H37Rv; format: functional

| Compound | MIC [1] | inhibition at 6.25 µg/mL [2] | IC50 (Vero) | Ratio [3] |
| --- | --- | --- | --- | --- |
| CCOC(=O)c1c(-c2ccc([N+](=O)[O-])cc2)[n+]([O-])c2ccccc2[n+]1[O-] | 0.78 µg/mL (≈ 2.2 µM) | 90% | 2.26 µg/mL (≈ 6.36 µM) | 2.9 |
| CCOC(=O)c1c(-c2ccc(Cl)cc2)[n+]([O-])c2ccccc2[n+]1[O-] | 0.39 µg/mL (≈ 1.13 µM) | 90% | 4.8 µg/mL (≈ 13.9 µM) | 12.31 |
| Cc1cc2c(cc1C)[n+]([O-])c(-c1ccc(Cl)cc1)c(C#N)[n+]2[O-] | 0.78 µg/mL (≈ 2.39 µM) | 90% | > 10 µg/mL | >12.8 |
| CO[C@H]1/C=C/O[C@@]2(C)Oc3c(C)c(O)c4c(O)c(c(/C=N/N5CCN(C)CC5)c(O)c4c3C2=O)NC(=O)/C(C)=C\C=C\[C@H](C)[C@H](O)[C@@H](C)[C@@H](O)[C@@H](C)[C@H](OC(C)=O)[C@@H]1C [RIFAMPIN] | 0.125 µg/mL (≈ 0.152 µM) | 90% | > 100 µg/mL | >800 |
| CCOC(=O)c1c(-c2ccc(C(F)(F)F)cc2)[n+]([O-])c2ccccc2[n+]1[O-] | 1.56 µg/mL (≈ 4.12 µM) | 90% | 2.24 µg/mL (≈ 5.92 µM) | 1.44 |
| Cc1ccc2c(c1)[n+]([O-])c(C#N)c(-c1ccccc1)[n+]2[O-] | 0.39 µg/mL (≈ 1.41 µM) | 90% | 3.6 µg/mL (≈ 13 µM) | 9.2 |
| N#Cc1c(-c2ccccc2)[n+]([O-])c2ccccc2[n+]1[O-] | 0.2 µg/mL (≈ 0.76 µM) | 90% | 1.9 µg/mL (≈ 7.22 µM) | 9.5 |
| CCOC(=O)c1c(-c2ccccc2)[n+]([O-])c2ccc(OC)cc2[n+]1[O-] | 6.25 µg/mL (≈ 18.4 µM) | 90% | 17.8 µg/mL (≈ 52.2 µM) | 2.84 |
| CCOC(=O)c1c(-c2ccccc2)[n+]([O-])c2ccc(Cl)cc2[n+]1[O-] | 1.56 µg/mL (≈ 4.52 µM) | 90% | 3.33 µg/mL (≈ 9.66 µM) | 2.13 |
| N#Cc1c(-c2ccc(Cl)cc2)[n+]([O-])c2ccc(F)cc2[n+]1[O-] | < 0.2 µg/mL | 90% | 47.9 µg/mL (≈ 152 µM) | >239.69 |
| N#Cc1c(-c2ccc(F)cc2)[n+]([O-])c2ccc(F)cc2[n+]1[O-] | < 0.2 µg/mL | 90% | 24.9 µg/mL (≈ 83.3 µM) | >124.67 |
| COc1ccc2c(c1)[n+]([O-])c(C#N)c(-c1ccc(C)cc1)[n+]2[O-] | 1.56 µg/mL (≈ 5.08 µM) | 90% | 3.8 µg/mL (≈ 12.4 µM) | 2.4 |
| N#Cc1c(-c2ccc(F)cc2)[n+]([O-])c2ccc(Cl)cc2[n+]1[O-] | < 0.2 µg/mL | 90% | 51.7 µg/mL (≈ 164 µM) | >258.67 |
| CCOC(=O)c1c(-c2ccccc2)[n+]([O-])c2ccc(C)cc2[n+]1[O-] | 1.56 µg/mL (≈ 4.81 µM) | 90% | 18.6 µg/mL (≈ 57.4 µM) | 11.93 |
| N#Cc1c(-c2ccc(Cl)cc2)[n+]([O-])c2ccc(C(F)(F)F)cc2[n+]1[O-] | < 0.2 µg/mL | 90% | 1.34 µg/mL (≈ 3.66 µM) | >6.68 |
| Cc1cc2c(cc1C)[n+]([O-])c(-c1ccc(F)cc1)c(C#N)[n+]2[O-] | 1.69 µg/mL (≈ 5.46 µM) | 90% | 100 µg/mL (≈ 323 µM) | >59.07 |
| CCOC(=O)c1c(-c2ccc(OC)cc2)[n+]([O-])c2ccccc2[n+]1[O-] | 1.56 µg/mL (≈ 4.58 µM) | 90% | 7.65 µg/mL (≈ 22.5 µM) | 4.9 |
